In data set [1] the test system is CDK1/cyclin B1. Nature of the data set: In vitro CDK1/cyclin B1 kinase assay. The settings on record: 15 min; for effect on CDK1-mediated Sp1 phosphorylation: substrate GST-Sp1 (619–785), [γ-^32P] ATP, 30°C; for phosphorylation by CDK1 (as substrate): 1 μg Sp1 protein, 50 ng CDK1/cyclin B1, 30°C. The format is biochemical. The protocol:
For the in vitro phosphorylation analysis, the GST-Sp1(619-785), GST-Sp1(619-785)-T739A, GST-Sp1(619-785)-T739D, GST-Sp1(619-785)-P6, GST-Sp1(619-785)-Z12, GST-Sp1(619-715) or GST-Sp1(619-740) were purified from Escherichia coli BL21 (DE3). These different Sp1 proteins and active CDK1/cyclin B1 (New England Biolabs, Beverly, MA) were used to examine Sp1 phosphorylation in vitro. Each reaction (20 μl) contained 1 μg of purified Sp1, 50 ng of active CDK1/cyclin B1, 2 μCi of [γ-^32P] ATP (GE Healthcare Life Sciences), 1 mM ATP (New England Biolabs) and […] of 10× kinase buffer containing 500 mM HEPES pH 7.4, 10 mM MgCl2, 1 mM EGTA and 1 mM dithiothreitol. The phosphorylation reactions were incubated at 30°C for 15 min. After the incubation, one-half of the reaction was added to 10 μl of 2×electrophoresis sample buffer, which was then heated to 95°C for 5 min. Proteins in the mixtures were immediately separated using SDS-polyacrylamide gel electrophoresis (PAGE).

Data set [2] relates to mitotic Sp1. As to the kind of experiment: GST-Pin1 pull-down with HeLa lysates. The format is binding. As to conditions: mitotic HeLa lysate; for interaction with phospho-Sp1(T739): antibody against phospho-Sp1 (T739). The protocol:
(§1) The mixture was incubated with shaking for 1 h at 4°C. The beads were washed three times in NETN buffer and added to the interphase or mitotic cell extract. The reaction mixture was incubated on ice for 1 h. The beads were then washed in NETN buffer. Proteins were eluted by sample buffer and separated by SDS- PAGE.

Data set [3] deals with Pin1. As to the kind of experiment: Pin1 interaction of Sp1 mutants (anti-Pin1 immunoprecipitation / pull-down). The settings on record: mitotic HeLa lysates / pull-down. The format is binding. Here is the method:
Cell lysates were prepared by using mRIPA buffer (50 mM Tris-HCl, pH 7.8, 150 mM NaCl, 5 mM ethylenediaminetetraacetic acid (EDTA), 0.1% Triton-X100, 0.05% NP-40). The lysates were incubated with anti-Sp1 (1:500), anti-CDK1 (1:200), anti-Pin1 (1:250), anti-HA tag (1:250), or anti-GFP tag (1:200) antibodies at 4°C for 1 h. After 1 h incubation, the mixture was incubated with Protein A or G Sepharose agarose beads at 4°C for 1 h. The beads were collected and washed three times by mRIPA buffer. The beads were added 2X electrophoresis sample buffer and analysed by immunoblotting.
as §1

In data set [4] the test system is Pin1. As to the kind of experiment: Co-localization of Sp1 and Pin1 by immunofluorescence in sub-mitotic stages. The format is cell-based. The settings on record: HeLa. Here is the method:
The cells were fixed with 4% paraformaldehyde (Sigma-Aldrich) in PBS according to a method described previously ([3]). Immunostaining was conducted with primary antibodies such as anti-Sp1, anti-GFP tag (Santa Cruz Biotechnology, Santa Cruz, CA), or anti-Pin1 (Calbiochem, San Diego, CA) antibodies. The cells were then treated with Alexa Fluor 488-conjugated goat anti-mouse or rabbit immunoglobulin G (IgG) and Alexa Fluor 568-conjugated goat anti-mouse or rabbit IgG polyclonal antibodies (Jackson ImmunoResearch Laboratories Inc., West Grove, PA). Finally, the cells were mounted in 90% glycerol containing 4'-6-diamidino-2-phenylindole (DAPI) (Invitrogen), and examined using a confocal laser-scanning microscope (FluoView^TM FV 1000; Olympus, Melville, NY) or immunofluorescence microscope (Personal DV Applied Precision, Issaquah, WA). The images were analysed with softWoRx software (Applied Precision Inc.).

Data set [5] has as its system JNK1. As to the kind of experiment: In vitro kinase assay with JNK1. The format is biochemical. As to conditions: substrate GST-Sp1(619-785).
The target in data set [6] is Pin1 (purified, used in ITC) (UniProt Q13526). Nature of the data set: ITC; Sp1 peptide (900 mM [sic]) titrated into Pin1 (60 mM [sic]) in the cell; 10 mM HEPES pH 7.5, 100 mM NaCl, 1 mM DTT; 25°C; MicroCal iTC200. A general note: Isothermal titration calorimetry measures the heat released or taken up as one component is titrated into another.
Data set [7] has as its target Pin1 (UniProt Q13526). As to the kind of experiment: isothermal titration calorimetry. The settings on record: reference: Thr739-Sp1 peptide (unphosphorylated); sites T739.
The subject of data set [8] is Sp1-binding probe of p21^WAF1/CIP1 promoter. As to the kind of experiment: DNA affinity precipitation assay (DAPA). As to conditions: 4°C, 1 h. Here is the method: Cell lysate incubated with 1 μg of binding probes in 500 μl binding of buffer (2 mM MgCl2, 60 mM KCl, 20 mM Tris-HCl pH 7.8, 5% glycerol, 0.5 mM EDTA and 0.02% NP-40). After incubation for 1 h at 4°C, the mixture was incubated with 30 μl of streptavidin-agarose beads (GE Healthcare Life Sciences) for 1 h at 4°C. The mixture was washed three times by binding buffer. The proteins in the beads were eluted by 2X sample buffer and analysed by SDS-PAGE and immunoblotting. The Sp1-binding probe 5′-[…]-3′, localized from −82 to −50 bp within the promoter of p21^WAF1/CIP1, was biotinylated at 5′ termini and then annealed with complementary strands.

For data set [9], the target named is Pin1 (UniProt Q13526). Nature of the data set: co-IP with anti-Pin1, Sp1 blot. As to conditions: reference: GFP-Sp1 wild type; sites T739.
Data set [10] deals with HeLa cells. As to the kind of experiment: Flow cytometry with PI staining (cell cycle). The format is cell-based. The settings on record: nocodazole 16 h. The protocol: The cells washed by cold PBS and then fixed in 70% alcohol or 4% paraformaldehyde at 4°C for 2 h. After fixation, the cells washed by cold PBS and treated with 0.1% TritonX-100, 10μg/ml RNase and 50 μg/ml propidium iodide for 1 h. The cells were analysed by flow cytometer (Cell Lab Quanta™ SC; Beckman Coulter or FACSCalibur; BD Biosciences).
A general note: A flow cytometer gives signals particle by particle.

The target in data set [11] is GST-Sp1(619-785)-T739D (UniProt P08047 619-785, T739D). As to the kind of experiment: DAPA (streptavidin pull-down); no significant difference from GST-Sp1(619-785); DAPA: 1 ug probe in 500 ul 20 mM Tris-HCl pH 7.8, 60 mM KCl, 2 mM MgCl2, 0.5 mM EDTA, 5% glycerol, 0.02% NP-40; 1 h at 4 C, then streptavidin-agarose 1 h at 4 C. The settings on record: protein: recombinant; tags: GST; label: 5' biotin on S1 strand; blunt.

The target in data set [12] is GST-Sp1(619-785) (UniProt P08047 619-785). Nature of the data set: DAPA (streptavidin pull-down); DAPA: 1 ug probe in 500 ul 20 mM Tris-HCl pH 7.8, 60 mM KCl, 2 mM MgCl2, 0.5 mM EDTA, 5% glycerol, 0.02% NP-40; 1 h at 4 C, then streptavidin-agarose 1 h at 4 C. The settings on record: protein: recombinant; tags: GST; label: 5' biotin on S1 strand; blunt.

From article PMC4267622, “Pin1-mediated Sp1 phosphorylation by CDK1 increases Sp1 stability and decreases its DNA-binding activity during mitosis” (Nucleic Acids Research, 2014) come the findings set out here.

For the molecule “Pin1-W34A: Pin1 mutated in the recognition domain”, the “effect on CDK1-mediated Sp1 phosphorylation” value in [1] was “but not Pin1-W34A and Pin1-WW, increased the signal”. In [2], the “interaction with mitotic Sp1” value is on record as “but not Pin1-W34A, interacted with mitotic Sp1”.
Consider Sp1-T739D: mimic phosphorylated Sp1, for which the “interaction with Pin1” value in [3] is listed as “increased interaction with GST-Pin1”.
The same measure, in the same setting: the result for “Sp1-T739A: phosphorylation site mutated Sp1” reads “decreased interaction with Pin1”.
Turning to “Sp1: transcription factor Sp1; endogenous or GFP-Sp1-WT expressed in HeLa cells”, the “Sp1 interaction/co-localization with Pin1” value came out at 93% in [4] (anaphase (within 20–60 min of nocodazole release)), 91.4% in data set [4] (metaphase (within 20–60 min of nocodazole release)) and 81.3% in data set [4] (prophase (within 20 min of nocodazole release)).
Regarding “Pin1: recombinant wild-type Pin1, peptidyl-prolyl isomerase”, the “effect on CDK1-mediated Sp1 phosphorylation” value in data set [1] is on record as “increased the signal of CDK1-mediated Sp1 phosphorylation in a dose dependent manner”. Besides, the “effect on JNK1 phosphorylation of Sp1” value in data set [5] was “this phosphorylation remained unaffected”. Further, in data set [2], the “interaction with mitotic Sp1” value was “interacted with mitotic Sp1” and the “interaction with phospho-Sp1(T739)” value is given as “interacted with phospho-Sp1(T739)”.
In the case of “GST-WW: recognition motif (WW domain) of Pin1”, the “effect on CDK1-mediated Sp1 phosphorylation” value in [1] was “but not Pin1-W34A and Pin1-WW, increased the signal”. For the same molecule, the “interaction with phospho-Sp1(T739)” value in data set [2] is listed as “interacted with phospho-Sp1(T739)”.
On to “Thr739(p)-Sp1 peptide (from UniProt P08047 735-745)”, for which, in [6], the Ka is 7400 M⁻¹, the Kd is 50 µM, the dH is -6.8 kcal/mol and the stoichiometry N is 0.93.
The molecule “Sp1 735-745 (from UniProt P08047) Thr739(p)-Sp1 peptide” showed an other: Ka in data set [7] of 7.4 M⁻¹.
For the molecule “GST-Sp1 (619–785): truncated Sp1, wild-type C-terminal region”, the “phosphorylation by CDK1 (as substrate)” value in data set [1] is reported as “phosphorylated by CDK1, albeit to a lesser extent”.
As to “GST-Sp1 (619–785)-T739A: T739A mutant of GST-Sp1 (619–785)”, in data set [1], the “phosphorylation by CDK1 (as substrate)” value was “No signal was detected”.
On to “GST-Sp1 (619–785)-T739D: mimic phosphorylation form of GST-Sp1 (619–785)”, for which the DNA-binding signal entry in data set [8] (purified GST-Sp1 proteins, four independent experiments) is “No significant difference in the DNA-binding signal”.
“GST-Sp1 (619–715): truncated Sp1, amino acids 619–715”: the “phosphorylation by CDK1 (as substrate)” value in data set [1] is on record as “No signal was detected”.
Still for that read-out and setting: in the case of “GST-Sp1 (619–740): truncated Sp1, C-terminus (741–785) ablated” it was “an increased phosphorylation signal was obtained”.
For the molecule Sp1 (from UniProt P08047) GFP-Sp1 T739A, in [9], the “binding against the reference” value is “weaker”.
“Sp1-4A: Sp1 mutant S720A, T723A, T737A and T739A”: in data set [8] (mitotic extract of HeLa cells, three independent experiments), the “DNA-binding activity to the p21^CIP/WAP promoter” value is recorded as “increased its DNA-binding activity to the p21^CIP/WAP promoter”. In data set [10], the cells entered mitosis is 62%.

B1: p21WAF1/CIP1 promoter Sp1 probe (-82 to -50) (dsDNA)
DNA 1: CCCGCCTCCTTGAGGCGGGCCCGGGCGGGGCGG
DNA 2: CCGCCCCGCCCGGGCCCGCCTCAAGGAGGCGGG
On to B1, for which the binding result in [11] and in data set [12] was “binds” in each case.

What is called Kd is a measure of binding affinity in units of concentration. A higher Kd goes with a looser complex. As a reminder, the stoichiometry N is a count of units in the complex or per binding partner.
